{
  "source": "the supplement of paper PMC10307832",
  "test_in_all_cases": "relative viability (nuclei count vs DMSO), 5 days (fraction); higher = more cells survive",
  "key": {"Pemetrexed + Phenformin": {"compound": "Nc1nc2[nH]cc(CCc3ccc(C(=O)N[C@@H](CCC(=O)O)C(=O)O)cc3)c2c(=O)[nH]1 [Pemetrexed] + N=C(N)NC(=N)NCCc1ccccc1 [Phenformin] (partner 250 µM)", "how_it_was_run": "(§1)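 The day after seeding in 1536-well plates, lung cancer cell lines were treated by pin tool with a single drug, or with a fixed anchor-drug dose together with five library-drug doses (not always all listed) in √10 steps. After 5 days, a combined fix-and-stain solution (final 0.05% Triton X-100, 1% formaldehyde, 1 ug/ml Hoechst) was added. Nuclei counted on 4× images gave relative viability as treated counts over vehicle counts, reported as the median of duplicate plates.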"}, "Pemetrexed + Pictilisib": {"compound": "Nc1nc2[nH]cc(CCc3ccc(C(=O)N[C@@H](CCC(=O)O)C(=O)O)cc3)c2c(=O)[nH]1 [Pemetrexed] + CS(=O)(=O)N1CCN(Cc2cc3nc(-c4cccc5[nH]ncc45)nc(N4CCOCC4)c3s2)CC1 [Pictilisib] (partner 1 µM)", "how_it_was_run": "as §1"}, "Idelalisib + Trametinib": {"compound": "CC[C@H](Nc1ncnc2[nH]cnc12)c1nc2cccc(F)c2c(=O)n1-c1ccccc1 [Idelalisib] + CC(=O)Nc1cccc(-n2c(=O)n(C3CC3)c(=O)c3c(Nc4ccc(I)cc4F)n(C)c(=O)c(C)c32)c1 [Trametinib] (partner 0.02 µM)", "how_it_was_run": "as §1"}, "Idelalisib + Olaparib": {"compound": "CC[C@H](Nc1ncnc2[nH]cnc12)c1nc2cccc(F)c2c(=O)n1-c1ccccc1 [Idelalisib] + O=C(c1cc(Cc2n[nH]c(=O)c3ccccc23)ccc1F)N1CCN(C(=O)C2CC2)CC1 [Olaparib] (partner 8 µM)", "how_it_was_run": "as §1"}},
  "data": [
    {"cell line": "UMC-11", "values": [
      {"measurement": "relative viability", "setting": "Pemetrexed + Phenformin; first compound 0.002 µM", "value": 0.325},
      {"measurement": "relative viability", "setting": "Pemetrexed + Phenformin; first compound 0.006325 µM", "value": 0.311},
      {"measurement": "relative viability", "setting": "Pemetrexed + Phenformin; first compound 0.02 µM", "value": 0.312},
      {"measurement": "relative viability", "setting": "Pemetrexed + Phenformin; first compound 0.06325 µM", "value": 0.334},
      {"measurement": "relative viability", "setting": "Pemetrexed + Phenformin; first compound 0.2 µM", "value": 0.347},
      {"measurement": "relative viability", "setting": "Pemetrexed + Pictilisib; first compound 0.002 µM", "value": 0.809},
      {"measurement": "relative viability", "setting": "Pemetrexed + Pictilisib; first compound 0.006325 µM", "value": 0.807},
      {"measurement": "relative viability", "setting": "Pemetrexed + Pictilisib; first compound 0.02 µM", "value": 0.837},
      {"measurement": "relative viability", "setting": "Pemetrexed + Pictilisib; first compound 0.06325 µM", "value": 0.781},
      {"measurement": "relative viability", "setting": "Pemetrexed + Pictilisib; first compound 0.2 µM", "value": 0.556},
      {"measurement": "relative viability", "setting": "Idelalisib + Trametinib; first compound 0.04 µM", "value": 0.786},
      {"measurement": "relative viability", "setting": "Idelalisib + Trametinib; first compound 0.1265 µM", "value": 0.651},
      {"measurement": "relative viability", "setting": "Idelalisib + Trametinib; first compound 0.4 µM", "value": 0.629},
      {"measurement": "relative viability", "setting": "Idelalisib + Trametinib; first compound 1.265 µM", "value": 0.764},
      {"measurement": "relative viability", "setting": "Idelalisib + Trametinib; first compound 4 µM", "value": 0.72},
      {"measurement": "relative viability", "setting": "Idelalisib + Olaparib; first compound 0.04 µM", "value": 0.416},
      {"measurement": "relative viability", "setting": "Idelalisib + Olaparib; first compound 0.1265 µM", "value": 0.347},
      {"measurement": "relative viability", "setting": "Idelalisib + Olaparib; first compound 0.4 µM", "value": 0.407},
      {"measurement": "relative viability", "setting": "Idelalisib + Olaparib; first compound 1.265 µM", "value": 0.631},
      {"measurement": "relative viability", "setting": "Idelalisib + Olaparib; first compound 4 µM", "value": 0.351}
    ]}
  ]
}
